Measurements taken from publication PMC12507957 (Drug Delivery and Translational Research, 2025).
Read-outs that look alike come from different tables or passages of the source.

Assays:
[1] = 32 °C; cited from earlier work
[2] = Mass balance studies after 48-h skin permeation of MTG in solvents; assay type: in vitro ADME, porcine; conditions: for recovery at 48 h, 5 %w/v: pig
Protocol: (§1) The in vitro permeation study was performed in triplicate using Franz diffusion cell apparatus with a diffusion area of ~ 0.8 cm^2 and a receptor volume of ~ 3 mL. The porcine skin was thawed at room temperature and cut into an appropriate size before mounting on the Franz diffusion cells. The receptor compartment was filled with PBS containing 0.02%w/v of sodium azide and a selected antioxidant. The Franz diffusion cells were placed into a water bath to maintain the skin temperature at 32 ± 0.5 °C. […] After 48-h permeation studies, the mass balance studies were performed.
Subsequently, the surface of the skin was washed twice with 500 μL of methanol before adding to the same Eppendorf tube containing the cotton buds. The skin was removed from the dissembled Franz diffusion cell and cut into pieces before placing in another Eppendorf tube containing 1 mL of methanol. All samples were vortexed and analysed using HPLC (Sect. HPLC analysis).
Samples were analysed using Shimadzu liquid chromatographic system (Kyoto, Japan) with SPD-20A UV–vis detector set at 254 nm. A reverse phase ZORBAX Eclipse Plus C18 column (Agilent Technologies, 150 × 4.6 mm ID × 3.5 μm) coupled with a C18 guard column (Phenomenex SecurityGuard™, 4 × 3.0 mm ID × 5 μm) was employed as the stationary phase. A gradient elution method with acetonitrile and 0.1%v/v of formic acid as the mobile phase (30:70 to 70:30 (v/v) over 1 min and held until 4 min; then returned to 30:70 (v/v) from 4 to 6 min and held up until 10 min) at a flow rate of 1.2 mL/min was used. The injection volume was set at 100 μL and the total run time was 10 min with a retention time of ~ 4 min.

[3] = In vitro skin permeation of MTG from gel formulations, with infinite dose model fitting; assay type: in vitro ADME, porcine; conditions: for Permeation (cumulative amount of MTG permeated): 48 h
Protocol: as §1, with “performed. The samples were extracted for MTG content overnight before HPLC analysis.” for “performed.”
To estimate the permeation parameters (P1 and P2), the in vitro permeation data were fitted to the infinite dose model (Eq. 1) using non-linear least squares. This infinite dose model was obtained by solving the diffusion equation using Laplace transform, which was subsequently numerically inverted using Weeks method and fitted to in Python 3.13.3 (Python Software Foundation, Wilmington, DE, US).1 Q¯s=J·A/s=P1ACd/ss/P2sinhs/P2
Here, Q¯s is the cumulative amount of drug permeated, J is the permeation flux, A is the permeation area, Cd is the initial concentration, h is the membrane thickness and s is the Laplace variable. The apparent partition and apparent diffusion coefficients, P1 and P2, are related to the h and the diffusion (D) and partition (K) coefficients, as defined in Eq. 2 and Eq. 3 [32]. The goodness of fit was measured based on the coefficient of determination (R^2) and root mean square error (RMSE).2 P1=Kh 3 P2=D/h^2
The permeability coefficient (Kp), steady-state flux (Jss) and lag time (tlag) can then be calculated using Eqs. 4, 5, and 6 [33] with the estimated values of P1 and P2 from the curve fitting.4 Kp=P1P2 5 Jss=KpCd 6 tlag=h^2/6D
Other permeation parameters were determined experimentally, where A was 0.7–0.8 cm^2, h was 0.0586 cm, Cd was 50 mg/mL and the volume of drug loaded was 40 µL.
(§2) BHT at the optimised concentration was also added accordingly. The gels were evaluated for their drug content by mixing the gel in methanol for overnight extraction of MTG before HPLC analysis (Sect. HPLC analysis). In vitro drug release studies were carried out with a similar experimental setup as described in Sect. In vitro permeation and mass balance studies but porcine skin was replaced with a 0.45 µm nylon membrane filter and 40 μL of gel was loaded on the membrane at the donor compartment. Subsequent in vitro permeation and mass balance studies were performed as described in Sect. In vitro permeation and mass balance studies by loading 40 μL of the gel on the skin.

[4] = Mass balance studies after skin permeation of MTG gels; assay type: in vitro ADME, porcine; conditions: pig
Protocol: as §1, with “performed. The samples were extracted for MTG content overnight before HPLC analysis.” for “performed.”
Immediately post-application, any remaining MTG was swabbed from the skin surface with cotton buds and added into an Eppendorf tube. Subsequently, the surface of the skin was washed twice with 500 μL of methanol before adding to the same Eppendorf tube containing the cotton buds. The skin was removed from the dissembled Franz diffusion cell and cut into pieces before placing in another Eppendorf tube containing 1 mL of methanol. All samples were vortexed and analysed using HPLC (Sect. HPLC analysis).
as §2

[5] = rats; cited from earlier work
[6] = 5%w/v MTG in DMSO, receptor PBS with 0.01%w/v ascorbic acid (DMSO-AA), 48 h
[7] = 5%w/v MTG in Labrasol, receptor PBS with 0.01%w/v ascorbic acid (Labrasol-AA), 48 h
[8] = 5%w/v MTG in Labrasol, receptor PBS without ascorbic acid, 48 h
[9] = 5%w/v MTG in Lauroglycol, receptor PBS with 0.01%w/v ascorbic acid (Lauroglycol-AA), 48 h
[10] = 5%w/v MTG in Lauroglycol, receptor PBS without ascorbic acid, 48 h
[11] = 5%w/v MTG in Maisine, receptor PBS with 0.01%w/v ascorbic acid (Maisine-AA), 48 h
[12] = 5%w/v MTG in Maisine, receptor PBS without ascorbic acid, 48 h
[13] = 5%w/v MTG in PG, receptor PBS with 0.01%w/v ascorbic acid (PG-AA), 48 h
[14] = 5%w/v MTG in Transcutol, receptor PBS with 0.01%w/v ascorbic acid (Transcutol-AA), 48 h
[15] = 5%w/v MTG in Transcutol, receptor PBS without ascorbic acid, 48 h

CC[C@@H]1CN2CCc3c([nH]c4cccc(OC)c34)[C@@H]2C[C@@H]1/C(=C\OC)C(=O)OC [MTG, mitragynine]
Saturated solubility of MTG in PBS [1]: 77.10 ± 5.17 µg/mL
Permeation (%) [2, 6]: 0.77 ± 0.12%
Skin extraction [2, 6]: 0.91 ± 0.19%
Washing (on skin surface) [2, 6]: 48.69 ± 0.86%
Permeation (%) [2, 7]: 0.08 ± 0.05%
Skin extraction [2, 7]: 3.23 ± 1.80%
Washing (on skin surface) [2, 7]: 70.50 ± 5.24%
Permeation (%) [2, 8]: 0.07 ± 0.07%
Skin extraction [2, 8]: 3.67 ± 0.45%
Washing (on skin surface) [2, 8]: 65.82 ± 5.20%
Permeation (%) [2, 9]: 0.18 ± 0.12%
Skin extraction [2, 9]: 1.96 ± 1.22%
Washing (on skin surface) [2, 9]: 57.28 ± 15.05%
Permeation (%) [2, 10]: 0.04 ± 0.01%
Skin extraction [2, 10]: 0.52 ± 0.38%
Washing (on skin surface) [2, 10]: 66.42 ± 2.26%
Permeation (%) [2, 11]: 0.42 ± 0.13%
Skin extraction [2, 11]: 1.34 ± 0.55%
Washing (on skin surface) [2, 11]: 60.12 ± 1.46%
Permeation (%) [2, 12]: 0.11 ± 0.10%
Skin extraction [2, 12]: 0.45 ± 0.18%
Washing (on skin surface) [2, 12]: 61.67 ± 5.42%
Permeation (%) [2, 13]: 0.30 ± 0.11%
Skin extraction [2, 13]: 1.04 ± 0.20%
Washing (on skin surface) [2, 13]: 45.95 ± 5.07%
Permeation (%) [2, 14]: 0.51 ± 0.22%
Skin extraction [2, 14]: 2.29 ± 0.57%
Washing (on skin surface) [2, 14]: 50.98 ± 9.49%
Permeation (%) [2, 15]: 0.19 ± 0.07%
Skin extraction [2, 15]: 2.08 ± 1.11%
Washing (on skin surface) [2, 15]: 71.94 ± 8.01%
recovery at 48 h, 5 %w/v ([2]; 5%w/v MTG in DMSO, receptor PBS with 0.01%w/v ascorbic acid (DMSO-AA), 48 h, read-out: Total percentage (mass balance recovery)): 50.7 ± 1.17%
recovery at 48 h, 5 %w/v ([2]; 5%w/v MTG in Labrasol, receptor PBS with 0.01%w/v ascorbic acid (Labrasol-AA), 48 h, read-out: Total percentage (mass balance recovery)): 75.7 ± 7.09%
recovery at 48 h, 5 %w/v ([2]; 5%w/v MTG in Labrasol, receptor PBS without ascorbic acid, 48 h, read-out: Total percentage (mass balance recovery)): 70.1 ± 5.72%
recovery at 48 h, 5 %w/v ([2]; 5%w/v MTG in Lauroglycol, receptor PBS without ascorbic acid, 48 h, read-out: Total percentage (mass balance recovery)): 67.4 ± 2.65%
recovery at 48 h, 5 %w/v ([2]; 5%w/v MTG in PG, receptor PBS with 0.01%w/v ascorbic acid (PG-AA), 48 h, read-out: Total percentage (mass balance recovery)): 47.6 ± 5.37%
recovery at 48 h, 5 %w/v ([2]; 5%w/v MTG in Transcutol, receptor PBS without ascorbic acid, 48 h, read-out: Total percentage (mass balance recovery)): 75.4 ± 9.19%
recovery at 48 h, 5 %w/v ([2]; Mitragynine recovery in mass balance studies, 5%w/v in single solvent systems): < 80%
Permeation (cumulative amount of MTG permeated) ([3]; 1% MTG gel with DMSO and BHT): 4.76 ± 0.79 μg/cm^2
Jss (steady-state flux) ([3]; 1% MTG gel with PG and BHT): 0.95 μg/cm^2/h
Permeation (cumulative amount of MTG permeated) ([3]; 1% MTG gel with PG and BHT): 4.92 ± 0.44 μg/cm^2
Permeation (cumulative amount of MTG permeated) ([3]; 1% MTG gel with Transcutol and BHT): 3.95 ± 0.81 μg/cm^2
tlag (lag time) ([3]; across all gel formulations): 9 to 14 h
Papp at 1 % ([3]; pig, 1% MTG gel with DMSO and BHT, read-out: Kp (permeability coefficient) (converted)): 0.00447 ×10⁻⁶ cm/s
Papp at 1 % ([3]; pig, 1% MTG gel with PG and BHT, read-out: Kp (permeability coefficient) (converted)): 0.00525 ×10⁻⁶ cm/s
Papp at 48 h, 1 % ([3]; pig, 1% MTG gel with Transcutol and BHT, read-out: Kp (permeability coefficient) (converted)): 0.00376 ×10⁻⁶ cm/s
recovery at 48 h, 1 % ([4]; 1% MTG gel with DMSO and BHT, read-out: Total percentage (mass balance recovery)): 81.3 ± 24.3%
recovery at 48 h, 1 % ([4]; 1% MTG gel with PG and BHT, read-out: Total percentage (mass balance recovery)): 85.5 ± 16.1%
recovery at 48 h, 1 % ([4]; 1% MTG gel with Transcutol and BHT, read-out: Total percentage (mass balance recovery)): 87.7 ± 10.8%
recovery at 48 h, 1 % ([4]; all gel formulations (DMSO, PG, Transcutol) with BHT, read-out: Total drug recovery (mass balance)): > 80%
Oral bioavailability [5]: 3%
